Assays:
gastric mucous membrane = experiment: Gastric mucous membrane troubles in rats (ulceration); type: in vivo, rats (Wister strain, male); details: oral, 1 mg/Kg, 6 hours
Experimental: Anti-inflammatory activity on gastric mucous membrane troubles in rats
Male rats of Wister strain, each weighing about 200 g, were fasted except for unlimited feeding of water for a time period of 24 hours, after which each of the test compounds shown in Table 4 was administered to the rats so fasted. […] Six hours after said administration, the test animals were slaughtered to remove their stomachs which were incised along the greater curvature thereof to visually observe whether or not an ulcer was formed at the gastric mucous membrane of their stomachs. The ulceration ratio (%) was calculated from the following equation: [formula]

[1] = for Stability: indomethacin: to alkalies, ketoprofen and flurbiprofen: to the gel base
[2] = orally administered; cited from earlier work

In the case of COc1ccc2c(c1)c(CC(=O)O)c(C)n2C(=O)c1ccc(Cl)cc1 [Indomethacin powder], the Ulceration ratio (gastric mucous membrane) is reported as 100.0% and the Ulceration ratio (gastric mucous membrane; listed as indomethacin powder) is reported as 100%.

With COc1ccc2c(c1)c(CC(=O)O)c(C)n2C(=O)c1ccc(Cl)cc1 [indomethacin] the Crystallization ([1]; gel base, in words) was “apt to crystallize out”, the “Solubility in the gel base” value ([1]; in words) was “inferior in solubility in the gel base” and the Stability [1] was “unstable to alkalies”. For the same compound, the “Medicinal efficacy compared with the effective ingredient of the composition of this invention” value [2] was “equal or slightly superior in medicinal efficacy”.

In the case of CC(C(=O)O)c1ccc(-c2ccccc2)c(F)c1 (centres unmarked) [flurbiprofen], the “Solubility in the gel base” value ([1]; in words) is reported as “excellent” and the Stability [1] is reported as “excellent in stability”.

Reference: patent publication US4393076A, “Anti-inflammatory and analgesic gel composition” (priority 1980, dated 1983)
